In PubChem BioAssay AID1963846 (Molecular Pharmacology Branch, DTP, NCI, 2024):
Where “and” joins values, the source holds several entries; their conditions need not be identical. Equal entries are not always repeated.

Tested on: 454973-116-R2-J3-PDC complex spheroid viability
Assay: Anticancer human tumor 454973-116-R2-J3-PDC patient-derived pancreatic carcinoma cell line growth inhibition [POLQ]
Conditions: for viability, T/C: stronger effect = lower value
Procedure: Multicellular complex tumor spheroid response to Polymerase (POL) inhibitors (novobiocin, ART-558, RP6685) in combination with a variety of drugs and investigational agents in selected tumor cell lines
The POL inhibitors (novobiocin, ART-558, and RP6685) were evaluated both individually and in combination with standard of care and investigational anticancer small molecules within a complex spheroid model of solid tumors. . Complex spheroids include a stromal component modeled by human endothelial cells (HUVEC) and fibroblasts modeled by human mesenchymal stem cells (MSCs). The concentration ranges selected for each drug and investigational agent were based upon clinically achievable concentrations if the clinical Cmax of the agent was known.
Compounds. The drugs and investigational agents: novobiocin (NSC847541), ART-558 (NSC835418), RP-6685 (NSC848927), peposertib (NSC802822), ceralasertib (NSC780249), elimusertib (NSC800525), camonsertib (NSC841442), AZD-1390 (NSC803789), olaparib (NSC753686), talazoparib (NSC767125), rucaparib (NSC756644), sotorasib (NSC818433), MRTX-1133 (NSC836407), SN-38 (NSC673596), topotecan (NSC609699), epotoside (NSC141540), doxorubicin (NSC123127), gemcitabine (NSC613327), 5-fluorouracil (NSC19893), paclitaxel (NSC125973), vemurafenib (NSC761431), MSA-2 (NSC828583), SN-011 (NSC837082), adavosertib (NSC754352), prexasertib (NSC758257), carboplatin (NSC241240) and oxaliplatin (NSC266046), were obtained from the National Cancer Institute (NCI) Developmental Therapeutics Program Chemical Repository (21). The FDA-approved anticancer drug set is available from the Developmental Therapeutics Program at https://dtp.cancer.gov/organization/dscb/obtaining/. […] The stock solutions were prepared in dimethyl sulfoxide (DMSO, Sigma-Aldrich, St. Louis, MO, cat. D2650), except for the platinum compounds which were prepared in saline (Quality Biological, Gaithersburg, MD, cat. 114-055-101), at 800-fold the tested concentration and stored at -70 degrees C prior to their use. All drugs and investigational agents were tested over a range starting from a high concentration at or near the clinical Cmax and decreasing in half-log increments. If the clinical Cmax for an agent had not been determined, the highest concentration tested was 10 microM, except for SN-38, which was tested at a high concentration of 1 microM.
Cell Culture. All cells were maintained in an incubator at 37 degrees C and 5% CO2 with 95% humidity. The PDC lines were cultured according to standard operating procedures established by the NCI PDMR (https://pdmr.cancer.gov). Table 3 of the manuscript, lists the cell lines along with the number of the three cell types plated to form the mct-spheroids and media for tumor cell growth. After thawing, all PDC lines, except 997537-175-T-J1-PDC and 415267-285-R-J2-PDC, were cultured in Matrigel-coated flasks prepared with a working solution of 1X Ham's F-12 nutrient mix, without supplementation (Thermo Fisher Scientific, cat. 11765054), 100 U/mL penicillin-streptomycin (Thermo Fisher Scientific, cat. 15140122), and 2.5% Matrigel (Corning Inc., Corning, NY, cat. 354248) for the first three passages. The two PDC lines 997537-175-T-J1-PDC and 415267-285-R-J2-PDC were cultured on uncoated flasks. The 857933-349-R-J2-PDC line was cultured in 6C/Colon 1B media containing advanced DMEM/F-12 (Thermo Fisher Scientific, cat. 12634028), 10 mM HEPES (Thermo Fisher Scientific, cat. 15630080), 1X GlutaMAX supplement (Thermo Fisher Scientific, cat. 35050061), 0.1 mg/mL primocin (InvivoGen, San Diego, CA, cat. ant-pm-2), 10% defined fetal bovine serum, heat inactivated (HyClone Laboratories Inc., Logan, UT, cat. SH30070.03HI), 50% L-WRN conditioned media (ATCC, cat. CRL-3276), 1.25 mM N-Acetyl-L-cysteine (Sigma-Aldrich, cat. A9165), 10 mM nicotinamide (Sigma-Aldrich, cat. N0636), 1X B-27 supplement (Thermo Fisher Scientific, cat. 17504044), 1X N-2 supplement (Thermo Fisher Scientific, cat. […]
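Also: spheroids exposed to drugs for seven days before measurement.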
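For viability, T/C in this document: percent viability relative to DMSO vehicle control wells taken as 100%.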

Work on Nc1ccn(C2OC(CO)C(O)C2(F)F)c(=O)n1 (stereo unspecified) + Cc1cccc(N(C)C(=O)C2C(O)CCN2c2nc(C)cc(C(F)(F)F)c2C#N)c1 yielded an IC50 (curve of first compound, second compound 0.0316 µM) of less than 31.6 nM, an IC50 (curve of first compound, second compound 0.1 µM) of less than 31.6 nM and an IC50 (curve of first compound, second compound 0.316 µM) of less than 31.6 nM. It also gave an IC50 (curve of first compound, second compound 1 µM) of less than 31.6 nM, an IC50 (curve of first compound, second compound 3.16 µM) of less than 31.6 nM and an IC50 (curve of first compound, second compound 10 µM) of less than 31.6 nM. The viability, T/C (second compound 0.0316 µM, first compound 0.0316 µM) was 13.4%, the viability, T/C (second compound 0.0316 µM, first compound 0.1 µM) was 13.4% and the viability, T/C (second compound 0.0316 µM, first compound 0.316 µM) was 14.2%. The viability, T/C (second compound 0.0316 µM, first compound 1 µM) was 12.5%, the viability, T/C (second compound 0.0316 µM, first compound 3.16 µM) was 12.3% and the viability, T/C (second compound 0.0316 µM, first compound 10 µM) was 12.7%. For the same compound, the viability, T/C (second compound 0.1 µM, first compound 0.0316 µM) was 16.2%, the viability, T/C (second compound 0.1 µM, first compound 0.1 µM) was 11.9% and the viability, T/C (second compound 0.1 µM, first compound 0.316 µM) was 13.7%. The viability, T/C (second compound 0.1 µM, first compound 1 µM) was 15.5%, the viability, T/C (second compound 0.1 µM, first compound 3.16 µM) was 13.5% and the viability, T/C (second compound 0.1 µM, first compound 10 µM) was 13.9%. It also gave a viability, T/C (second compound 0.316 µM, first compound 0.0316 µM) of 15.1%, a viability, T/C (second compound 0.316 µM, first compound 0.1 µM) of 13.8% and a viability, T/C (second compound 0.316 µM, first compound 0.316 µM) of 14.2%. The viability, T/C (second compound 0.316 µM, first compound 1 µM) was 14.2%, the viability, T/C (second compound 0.316 µM, first compound 3.16 µM) was 13.6% and the viability, T/C (second compound 0.316 µM, first compound 10 µM) was 12.8%. It also gave a viability, T/C (second compound 1 µM, first compound 0.0316 µM) of 14.1%, a viability, T/C (second compound 1 µM, first compound 0.1 µM) of 11.7% and a viability, T/C (second compound 1 µM, first compound 0.316 µM) of 13.9%. For the same compound, the viability, T/C (second compound 1 µM, first compound 1 µM) was 14.6%, the viability, T/C (second compound 1 µM, first compound 3.16 µM) was 12.5% and the viability, T/C (second compound 1 µM, first compound 10 µM) was 11.8%. It also gave a viability, T/C (second compound 3.16 µM, first compound 0.0316 µM) of 16.9%, a viability, T/C (second compound 3.16 µM, first compound 0.1 µM) of 13.5% and a viability, T/C (second compound 3.16 µM, first compound 0.316 µM) of 14.8%. It also gave a viability, T/C (second compound 3.16 µM, first compound 1 µM) of 13.8%, a viability, T/C (second compound 3.16 µM, first compound 3.16 µM) of 12.5% and a viability, T/C (second compound 3.16 µM, first compound 10 µM) of 14%. For the same compound, the viability, T/C (second compound 10 µM, first compound 0.0316 µM) was 13.6%, the viability, T/C (second compound 10 µM, first compound 0.1 µM) was 14.2% and the viability, T/C (second compound 10 µM, first compound 0.316 µM) was 17.1%. It also gave a viability, T/C (second compound 10 µM, first compound 1 µM) of 14.2%, a viability, T/C (second compound 10 µM, first compound 3.16 µM) of 13.8% and a viability, T/C (second compound 10 µM, first compound 10 µM) of 11.9%.

For CCCS(=O)(=O)Nc1ccc(F)c(C(=O)c2c[nH]c3ncc(-c4ccc(Cl)cc4)cc23)c1F, the viability, T/C (compound 0.0316 µM) was 111% and 107% and 105%, the viability, T/C (compound 0.1 µM) was 107% (2×) and 110% and the viability, T/C (compound 0.316 µM) was 108% (2×) and 115%. The viability, T/C (compound 1 µM) was 109% and 111% and 104%, the viability, T/C (compound 3.16 µM) was 116% and 110% and 112% and the viability, T/C (compound 10 µM) was 33% and 37.7% and 50.1%. The IC50 (curve of compound) was 7770 nM and 8190 nM and > 10000 nM.

For Nc1ccc(C#CCN(C(=O)Cc2ncc(C(F)(F)F)cc2C(F)(F)F)c2ccc(F)cc2)nn1, the viability, T/C (compound 0.0316 µM) was 109% [middle of 13 runs], the viability, T/C (compound 0.1 µM) was 106% [middle of 13 runs] and the viability, T/C (compound 0.316 µM) was 107% [middle of 13 runs]. For the same compound, the viability, T/C (compound 1 µM) was 104% [middle of 13 runs], the viability, T/C (compound 3.16 µM) was 105% [middle of 13 runs] and the viability, T/C (compound 10 µM) was 112% [middle of 13 runs]. The IC50 (compound alone, run of 11/06/2023) was greater than 10000 nM.

In the case of CC1COCCN1c1cc(-c2ccnn2C)c2ccnc(-c3ccn[nH]3)c2n1 (stereo unspecified), the viability, T/C (compound 0.0316 µM) is reported as 91.5% and 96.9% and 97.4%, the viability, T/C (compound 0.1 µM) is reported as 75.7% and 73.8% and 55.7% and the viability, T/C (compound 0.316 µM) is reported as 42.8% and 37.2% and 20.8%. The viability, T/C (compound 1 µM) was 20.7% and 22.5% and 12.6%, the viability, T/C (compound 3.16 µM) was 21.3% and 24.4% and 12.3% and the viability, T/C (compound 10 µM) was 25% and 30% and 17.2%. The IC50 (curve of compound) was 238 nM and 208 nM and 121 nM.

With Cn1ncnc1[C@H]1c2n[nH]c(=O)c3cc(F)cc(c23)N[C@@H]1c1ccc(F)cc1 the viability, T/C (compound 0.000316 µM) was 112% and 102% (2×), the viability, T/C (compound 0.001 µM) was 91.7% and 103% and 104% and the viability, T/C (compound 0.00316 µM) was 92.2% and 107% and 93.9%. The viability, T/C (compound 0.01 µM) was 95.1% and 86.6% and 101%, the viability, T/C (compound 0.0316 µM) was 111% and 86.4% and 102% and the viability, T/C (compound 0.1 µM) was 89.9% and 81.5% and 91.9%. For the same compound, the IC50 (curve of compound) was greater than 100 nM.

With COc1cccc2c1C(=O)c1c(O)c3c(c(O)c1C2=O)CC(O)(C(=O)CO)CC3OC1CC(N)C(O)C(C)O1 (stereo unspecified) the viability, T/C (compound 0.0316 µM) was 73.1% and 56.1% and 76.5%, the viability, T/C (compound 0.1 µM) was 29.5% and 17.3% and 24.4% and the viability, T/C (compound 0.316 µM) was 22.2% and 15.9% and 20.4%. For the same compound, the viability, T/C (compound 1 µM) was 9.63% and 3.16% and 7.36%, the viability, T/C (compound 3.16 µM) was 0.59% and 0.89% and 0.65% and the viability, T/C (compound 10 µM) was 0.49% and 0.17% and 1.33%. For the same compound, the IC50 (curve of compound) was 62.6 nM and 37.5 nM and 60.1 nM.

In the case of COc1cccc(OCCCN)c1-c1cc(Nc2cnc(C#N)cn2)n[nH]1, the viability, T/C (compound 0.00316 µM) is reported as 99.7% (2×) and 101%, the viability, T/C (compound 0.01 µM) is reported as 70.4% and 75.3% and 73% and the viability, T/C (compound 0.0316 µM) is reported as 7.56% and 10.8% and 14.6%. For the same compound, the viability, T/C (compound 0.1 µM) was 5.87% and 6.45% and 6.4%, the viability, T/C (compound 0.316 µM) was 4.59% and 5.13% and 4.47% and the viability, T/C (compound 1 µM) was 4.4% and 5.18% and 4.15%. For the same compound, the IC50 (curve of compound) was 14.5 nM and 15.7 nM and 15.8 nM.

With CC1COCCN1c1cc(C2(S(C)(=N)=O)CC2)nc(-c2ccnc3[nH]ccc23)n1 (stereo unspecified) the viability, T/C (compound 0.0316 µM) was 112% and 105% and 108%, the viability, T/C (compound 0.1 µM) was 105% and 106% and 102% and the viability, T/C (compound 0.316 µM) was 108% and 109% and 103%. The viability, T/C (compound 1 µM) was 100% and 95.8% and 92%, the viability, T/C (compound 3.16 µM) was 79.7% and 65.6% and 90.4% and the viability, T/C (compound 10 µM) was 32.3% and 23.4% and 33.7%. The IC50 (curve of compound) was 6520 nM and 4820 nM and 7120 nM.
